The numbers were not newly measured in publication doi:10.1101/2024.08.20.608791v1 (bioRxiv, 2024), which cites them from elsewhere.

Molecules are shown by their SMILES.

The conditions of data set [1]: oral bioavailability in animals, species not stated.
The conditions of data set [2]: assay not specified.
The conditions of data set [3]: <LOQ.

For the compound `C=C[C@@H]1C[C@]1(NC(=O)[C@@H]1C[C@@H](Oc2cc(-c3csc(NC(=O)C(C)C)n3)nc3c(Br)c(OC)ccc23)CN1C(=O)[C@@H](NC(=O)OC1CCCC1)C(C)(C)C)C(=O)O` [faldaprevir], the “observed F in animals” value in data set [1] was 26-39%.

`CC[C@@H]1C[C@]1(NC(=O)[C@@H]1C[C@@H](Oc2cc(-c3csc(NC(C)C)n3)nc3c(Cl)c(OCCN4CCOCC4)ccc23)CN1C(=O)[C@@H](NC(=O)O[C@@H]1C[C@@H]2C[C@@H]2C1)C(C)(C)C)C(=O)O` [vedroprevir]: the “observed F in animals” value in data set [1] is recorded as 49-123%. The “in vitro permeability (in words)” value in data set [2] was “low in vitro permeability”. The “solubility in water (in words)” value in data set [3] is “practically insoluble in water”.

Turning to `CC(=O)O[C@H]1C(=O)[C@@]2(C)[C@H]([C@H](OC(=O)c3ccccc3)[C@]34OC(=O)O[C@H]3[C@H](OC(=O)[C@H](O)[C@H](CC(C)C)NC(=O)OC(C)(C)C)C(C)=C1C4(C)C)[C@]1(OC(C)=O)CO[C@@H]1C[C@@H]2O` [ortataxel], the “observed F in animals” value in data set [1] was 25%. Further, in data set [2], the “in vitro permeability (in words)” value is “moderate in vitro permeability”.

Take `CC[C@@H]([C@H](C)O)n1ncn(-c2ccc(N3CCN(c4ccc(OC[C@@H]5CO[C@@](Cn6cncn6)(c6ccc(F)cc6F)C5)cc4)CC3)cc2)c1=O` [posaconazole]: the “observed F in animals” value in data set [1] is listed as 52%. Further, the “in vitro permeability (in words)” value in data set [2] was “high in vitro permeability”. The “solubility in water (in words)” value in data set [3] is “practically insoluble in water”. Also, where the note is “calculated”, the “calculated log P” value is given as 5.4. In addition, the “experimentally determined log P” value (experimental) was 2.4.

For the compound `C[C@H]1O[C@@H](O[C@H]2[C@@H](O)C[C@H](O[C@H]3[C@@H](O)C[C@H](O[C@H]4CC[C@@]5(C)[C@H](CC[C@@H]6[C@@H]5C[C@@H](O)[C@]5(C)[C@@H](C7=CC(=O)OC7)CC[C@]65O)C4)O[C@@H]3C)O[C@@H]2C)C[C@H](O)[C@@H]1O` [Digoxin], the “Caco-2 permeability (in words)” value in the data set with Caco-2 (Caco-2 experiments) is recorded as “moderate permeability”. Further, the “fa predicted using the Caco-2 assay” value in the data set on Caco-2 (underprediction of human fa from Caco-2) is recorded as roughly 50%.

Consider `CC(C)c1nc(CN(C)C(=O)N[C@@H](CCN2CCOCC2)C(=O)N[C@H](CC[C@H](Cc2ccccc2)NC(=O)OCc2cncs2)Cc2ccccc2)cs1` [cobicistat], for which the “observed F in animals” value in data set [1] was 11-33%.
